How the values were obtained:
DENV-2 16681 strain = assay: DENV-2 antiviral assay (eGFP-labeled virus in Vero cells); assay type: cell-based, Dengue virus; details: DENV-2 16681 eGFP, MOI 0.5, 3 days
Protocol: The antiviral activity of all the compounds of the invention was tested against the DENV-2 16681 strain which was labeled with enhanced green fluorescent protein (eGPF). The culture medium consists of minimal essential medium supplemented with 2% of heat-inactivated fetal calf serum, 0.04% gentamycin (50 mg/mL) and 2 mM of L-glutamine. Vero cells, obtained from ECACC, were suspended in culture medium and 25 μL was added to 384-well plates (2500 cells/well), which already contain the antiviral compounds. Typically, these plates contain a 5-fold serial dilution of 9 dilution steps of the test compound at 200 times the final concentration in 100% DMSO (200 nL). […] Finally, each plate contains wells which are assigned as virus controls (containing cells and virus in the absence of compound), cell controls (containing cells in the absence of virus and compound) and medium controls (containing medium in the absence of cells, virus and compounds). To the wells assigned as medium control, 25 μL of culture medium was added instead of Vero cells. Once the cells were added to the plates, the plates were incubated for 30 minutes at room temperature to allow the cells to distribute evenly within the wells. Next, the plates were incubated in a fully humidified incubator (37° C., 5% CO2) until the next day. Then, DENV-2 strain 16681, labeled with eGFP, was added at a multiplicity of infection (MOI) of 0.5. Therefore, 15 μL of virus suspension was added to all the wells containing test compound and to the wells assigned as virus control. In parallel, 15 μL of culture medium was added to the medium and cell controls. Next, the plates were incubated for 3 days in a fully humidified incubator (37° C., 5% CO2). At the day of the read out, the eGFP fluorescence was measured using an automated fluorescence microscope at 488 nm (blue laser). Using an in-house LIMS system, inhibition dose response curves for each compound were calculated and the half maximal effective concentration (EC50) was determined. Therefore, the percent inhibition (I) for every test concentration is calculated using the following formula: I=100*([…])/(SVC−SCC); ST, SCC and SVC are the amount of eGFP signal in the test compound, cell control and virus control wells, respectively. The EC50 represents the concentration of a compound at which the virus replication is inhibited with 50%, as measured by a 50% reduction of the eGFP fluorescent intensity compared to the virus control. The EC50 is calculated using linear interpolation (Table 1).

DENV-1 strain TC974 #666 = assay: Tetravalent RT-qPCR assay, serotype 1; assay type: cell-based; details: Dengue virus, DENV1, 72 h; RT-qPCR serotype 1 TC974#666, Protocol A, Vero cells, day 3
Protocol: (§1) The antiviral activity of the compounds of the invention was tested against DENV-1 strain TC974 #666 (NCPV), DENV-2 strain 16681, DENV-3 strain H87 (NCPV) and DENV-4 strain H241 (NCPV) in a RT-qPCR assay. Therefore, Vero cells were infected with either DENV-1, or -2, or -3, or -4 in the presence or absence of test compounds. At day 3 post-infection, the cells were lysed and cell lysates were used to prepare cDNA of both a viral target (the 3′UTR of DENV; Table 2) and cellular reference gene (β-actin, Table 2). Subsequently, a duplex real time PCR was performed on a Lightcycler480 instrument. The generated Cp value is inversely proportional to the amount of RNA expression of these targets. Inhibition of DENV replication by a test compound results in a shift of Cp's for the 3′UTR gene. On the other hand, if a test compound is toxic to the cells, a similar effect on β-actin expression will be observed. The comparative ΔΔCp method is used to calculate EC50, which is based on the relative gene expression of the target gene (3′UTR) normalized with the cellular housekeeping gene (β-actin). In addition, CC50 values are determined based on the Cp values acquired for the housekeeping gene β-actin.
(§2) The culture medium consisted of minimal essential medium supplemented with 2% of heat-inactivated fetal calf serum, 0.04% gentamycin (50 mg/mL) and 2 mM of L-glutamine. Vero cells, obtained from ECACC, were suspended in culture medium and 75 μL/well was added in 96-well plates (10000 cells/well), which already contain the antiviral compounds. […] In addition, each plate contains wells which are assigned as virus controls (containing cells and virus in the absence of compound) and cell controls (containing cells in the absence of virus and compound). Once the cells were added in the plates, the plates were incubated in a fully humidified incubator (37° C., 5% CO2) until the next day. Dengue viruses serotype-1, 2, 3 and 4 were diluted in order to obtain a Cp of ˜22-24 in the assay. Therefore, 25 μL of virus suspension was added to all the wells containing test compound and to the wells assigned as virus control. In parallel, 25 μL of culture medium was added to the cell controls. Next, the plates were incubated for 3 days in a fully humidified incubator (37° C., 5% CO2). After 3 days, the supernatant was removed from the wells and the cells were washed twice with ice-cold PBS (˜100 μL). The cell pellets within the 96-well plates were stored at −80° C. for at least 1 day. Next, RNA was extracted using the Cells-to-CT™ lysis kit, according to the manufacturer's guideline (Life Technologies). The cell lysates can be stored at −80° C. or immediately used in the reverse transcription step.
(§3) In preparation of the reverse transcription step, mix A (table 3A) was prepared and 7.57 μL/well was dispensed in a 96-well plate. After addition of 5 μL of the cell lysates, a five minute denaturation step at 75° C. was performed (table 3B). Afterwards, 7.43 μL of mix B was added (table 3C) and the reverse transcription step was initiated (table 3D) to generate cDNA.
(§4) Finally, a RT-qPCR mix was prepared, mix C (table 4A), and 22.02 μL/well was dispensed in 96-well LightCycler qPCR plates to which 3 μL of cDNA was added and the qPCR was performed according to the conditions in table 4B on a LightCycler 480.
(§5) Using the LightCycler software and an in-house LIMS system, dose response curves for each compound were calculated and the half maximal effective concentration (EC50) and the half maximal cytotoxic concentration (CC50) were determined (Tables 5-8).

DENV-2 strain 16681 = assay: Tetravalent RT-qPCR assay, serotype 2; assay type: cell-based; details: Dengue virus, DENV2, 72 h; RT-qPCR serotype 2 16681, Protocol A, Vero cells, day 3
Protocol: as §1, §2, §3, §4, §5

DENV-3 strain H87 = assay: Tetravalent RT-qPCR assay, serotype 3; assay type: cell-based; details: Dengue virus, DENV3, 72 h; RT-qPCR serotype 3 H87, Protocol A, Vero cells, day 3
Protocol: as §1, §2, §3, §4, §5

DENV-4 strain H241 = assay: Tetravalent RT-qPCR assay, serotype 4; assay type: cell-based; details: Dengue virus, DENV4, 72 h; RT-qPCR serotype 4 H241, Protocol A, Vero cells, day 3
Protocol: as §1, §2, §3, §4, §5

[1] = Cytotoxicity in RT-qPCR assay (Cp of housekeeping gene β-actin); assay type: cell-based; details: African green monkey
Protocol: as §1, §2, §5

[2] = Toxicity on the same plates (ATPlite cell viability); details: African green monkey, CC50, Vero cells, same plates as DENV-2 antiviral assay
Vero cells = assay: as above; details: Vero cells, same plates as DENV-2 antiviral assay
[3] = RT-qPCR serotype 1 TC974#666, Protocol A
[4] = RT-qPCR serotype 2 16681, Protocol A
[5] = RT-qPCR serotype 3 H87, Protocol A
[6] = RT-qPCR serotype 4 H241, Protocol A

## COc1cc(NC(C(=O)c2c[nH]c3cc(OC)c(C(F)(F)F)cc23)c2ccc(F)cc2OC)cc(OCCO)c1 (single isomer, unassigned) [Compound 2A, 2-(4-fluoro-2-methoxyphenyl)-2-((3-(2-hydroxyethoxy)-5-methoxyphenyl)amino)-1-(6-methoxy-5-(trifluoromethyl)-1H-indol-3-yl)ethanone]
DENV-2 16681 strain
  EC50: 0.45 nM
DENV-1 strain TC974 #666
  EC50: 2.2 nM
DENV-2 strain 16681
  EC50: 0.25 nM
DENV-3 strain H87
  EC50: 19 nM
DENV-4 strain H241
  EC50: 62 nM
[1]; [3]
  CC50 at 3 days: > 2500 nM
[1]; [4]
  CC50 at 3 days: 3200 nM
[1]; [5]
  CC50 at 3 days: > 1900 nM
[1]; [6]
  CC50 at 3 days: > 2100 nM
[2]
  CC50: 3500 nM

## COc1cc(NC(C(=O)c2c[nH]c3c(C)cc(OC(F)(F)F)cc23)c2ccc(F)cc2OC)cc(OCCO)c1 (single isomer, unassigned) [Compound 8A, 2-(4-fluoro-2-methoxyphenyl)-2-((3-(2-hydroxyethoxy)-5-methoxyphenyl)amino)-1-(7-methyl-5-(trifluoromethoxy)-1H-indol-3-yl)ethanone]
DENV-2 16681 strain
  EC50: 0.35 nM
DENV-1 strain TC974 #666
  EC50: 0.71 nM
DENV-2 strain 16681
  EC50: 0.31 nM
DENV-3 strain H87
  EC50: 5.8 nM
DENV-4 strain H241
  EC50: 48 nM
[1]; [3]
  CC50 at 3 days: 2100 nM
[1]; [4]
  CC50 at 3 days: 3700 nM
[1]; [5]
  CC50 at 3 days: > 2400 nM
[1]; [6]
  CC50 at 3 days: 2600 nM
Vero cells
  CC50: 2900 nM

## COc1cc(NC(C(=O)c2c[nH]c3ccc(C(F)(F)F)cc23)c2ccc(Cl)cc2OC)cc(OCCO)c1 (single isomer, unassigned) [Compound 9B, 2-(4-chloro-2-methoxyphenyl)-2-((3-(2-hydroxyethoxy)-5-methoxyphenyl)amino)-1-(5-(trifluoromethyl)-1H-indol-3-yl)ethanone]
DENV-2 16681 strain
  EC50: 0.18 nM
DENV-1 strain TC974 #666
  EC50: 0.88 nM
DENV-2 strain 16681
  EC50: 0.27 nM
DENV-3 strain H87
  EC50: 6.3 nM
DENV-4 strain H241
  EC50: 50 nM
[1]; [3]
  CC50 at 3 days: > 2000 nM
[1]; [4]
  CC50 at 3 days: 3400 nM
[1]; [5]
  CC50 at 3 days: > 2500 nM
[1]; [6]
  CC50 at 3 days: 2700 nM
Vero cells
  CC50: 3300 nM

## COc1cc(NC(C(=O)c2c[nH]c3cc(F)c(C(F)(F)F)cc23)c2ccc(Cl)cc2OC)cc(OCCO)c1 (single isomer, unassigned) [Compound 11A, 2-(4-chloro-2-methoxyphenyl)-1-(6-fluoro-5-(trifluoromethyl)-1H-indol-3-yl)-2-((3-(2-hydroxyethoxy)-5-methoxyphenyl)amino)ethanone]
DENV-2 16681 strain
  EC50: 0.33 nM
DENV-1 strain TC974 #666
  EC50: 0.69 nM
DENV-2 strain 16681
  EC50: 0.24 nM
DENV-3 strain H87
  EC50: 5.7 nM
DENV-4 strain H241
  EC50: 39 nM
[1]; [3]
  CC50 at 3 days: > 2500 nM
[1]; [4]
  CC50 at 3 days: > 2500 nM
[1]; [5]
  CC50 at 3 days: > 2500 nM
[1]; [6]
  CC50 at 3 days: 1900 nM
[2]
  CC50: 2500 nM

## COc1cc(NC(C(=O)c2c[nH]c3c(C)cc(C(F)(F)F)cc23)c2ccc(Cl)cc2OC)cc(OCCO)c1 (single isomer, unassigned) [Compound 12A, 2-(4-chloro-2-methoxyphenyl)-2-((3-(2-hydroxyethoxy)-5-methoxyphenyl)amino)-1-(7-methyl-5-(trifluoromethyl)-1H-indol-3-yl)ethanone]
DENV-2 16681 strain
  EC50: 0.16 nM
DENV-1 strain TC974 #666
  EC50: 0.4 nM
DENV-2 strain 16681
  EC50: 0.22 nM
DENV-3 strain H87
  EC50: 3.9 nM
DENV-4 strain H241
  EC50: 30 nM
[1]; [3]
  CC50 at 3 days: > 2500 nM
[1]; [4]
  CC50 at 3 days: > 2500 nM
[1]; [5]
  CC50 at 3 days: > 2500 nM
[1]; [6]
  CC50 at 3 days: > 2400 nM
Vero cells
  CC50: 2600 nM

## COc1cc(NC(C(=O)c2c[nH]c3cc(OC)c(OC(F)(F)F)cc23)c2ccc(Cl)cc2OC)cc(OCCO)c1 (single isomer, unassigned) [Compound 14A, 2-(4-chloro-2-methoxyphenyl)-2-((3-(2-hydroxyethoxy)-5-methoxyphenyl)amino)-1-(6-methoxy-5-(trifluoromethoxy)-1H-indol-3-yl)ethanone]
DENV-2 16681 strain
  EC50: 0.17 nM
DENV-1 strain TC974 #666
  EC50: 0.92 nM
DENV-2 strain 16681
  EC50: 0.17 nM
DENV-3 strain H87
  EC50: 5.1 nM
DENV-4 strain H241
  EC50: 25 nM
[1]; [3]
  CC50 at 3 days: > 2100 nM
[1]; [4]
  CC50 at 3 days: 3800 nM
[1]; [5]
  CC50 at 3 days: > 2300 nM
[1]; [6]
  CC50 at 3 days: 1600 nM
Vero cells
  CC50: 2500 nM

## COc1cc(NC(C(=O)c2c[nH]c3cc(F)c(OC(F)(F)F)cc23)c2ccc(Cl)cc2OC)cc(OCCO)c1 (single isomer, unassigned) [Compound 15B, 2-(4-chloro-2-methoxyphenyl)-1-(6-fluoro-5-(trifluoromethoxy)-1H-indol-3-yl)-2-((3-(2-hydroxyethoxy)-5-methoxyphenyl)amino)ethanone]
DENV-2 16681 strain
  EC50: 0.29 nM
DENV-1 strain TC974 #666
  EC50: 0.46 nM
DENV-2 strain 16681
  EC50: 0.15 nM
DENV-3 strain H87
  EC50: 3.2 nM
DENV-4 strain H241
  EC50: 31 nM
[1]; [3]
  CC50 at 3 days: 1500 nM
[1]; [4]
  CC50 at 3 days: > 2100 nM
[1]; [5]
  CC50 at 3 days: > 2400 nM
[1]; [6]
  CC50 at 3 days: 1600 nM
Vero cells
  CC50: 2600 nM

## COc1cc(NC(C(=O)c2c[nH]c3c(C)cc(OC(F)(F)F)cc23)c2ccc(Cl)cc2OC)cc(OCCO)c1 (single isomer, unassigned) [Compound 16A, 2-(4-chloro-2-methoxyphenyl)-2-((3-(2-hydroxyethoxy)-5-methoxyphenyl)amino)-1-(7-methyl-5-(trifluoromethoxy)-1H-indol-3-yl)ethanone]
DENV-2 16681 strain
  EC50: 0.098 nM
DENV-1 strain TC974 #666
  EC50: 0.63 nM
DENV-2 strain 16681
  EC50: 0.15 nM
DENV-3 strain H87
  EC50: 1.7 nM
DENV-4 strain H241
  EC50: 17 nM
[1]; [3]
  CC50 at 3 days: > 2500 nM
[1]; [4]
  CC50 at 3 days: > 2500 nM
[1]; [5]
  CC50 at 3 days: > 2500 nM
[1]; [6]
  CC50 at 3 days: > 2000 nM
[2]
  CC50: 2400 nM
